{"source": "patent US8242240B2", "about": "“Anti-inflammatory compounds and uses thereof” (Yale University, priority 2000, dated 2012)", "key": {"[1]": {"test_system": "NF-κB", "experiment": "pBIIX-luciferase NF-κB reporter assay in HeLa cells", "type": "cell-based, human", "conditions": "for basal NF-κB activity (luciferase reporter): no TNFα; for TNFα-induced NF-κB activation (luciferase reporter): peptide 100 and 200 μM 2 h, TNFα 10 ng/ml 4 h", "protocol": "(A) Sequences of wild-type (SEQ ID NO:18) and mutant (SEQ ID NO:19 forms of IKKβ NBD peptide. (B) GST-pull-down analysis was performed using either GST-NEMO-in vitro translated IKKβ (upper panel) or GST-IKKβ-(644-756)-in vitro translated NEMO (lower panel). The assay was performed in the absence (no peptide) or presence of increasing concentrations ([…], 500 or 1000 μM) of either mutant (MUT) (SEQ ID NO:19) or wild-type (WT) NBD (SEQ ID NO:18). (C) HeLa cells were incubated with either peptide (200 μM) for the times indicated. Following lysis, the IKK complex was immunoprecipitated using anti-NEMO and the resulting immunoblot probed with anti-IKKβ. (D) Gel image showing anti-NEMO immunoprecipitation. (E) Gel image showing anti-FLAG immunoblot. (F) HeLa cells were incubated for three hours with increasing concentrations: 50, 100 or 200 μM) of each peptide followed by treatment for fifteen minutes with TNFα (10 ng/ml) as indicated (+). Following lysis, nuclear extracts were made and 10 μg of protein from each sample was used for EMSA using a specific [^32P]-labeled κB-site probe. (G) Gel image showing anti-Phospho-C-Jun immunoblot and anti-β-Actin immunoblot. (H) HeLa cells were transfected for forty-eight hours with pBIIX-luciferase then incubated for two hours in the absence (control) or presence of mutant or wild-type NBD peptide (100 and 200 μM of each). Subsequently the cells were either treated with TNFα (10 ng/ml) as indicated (toe panel) or left untreated (bottom panel) for a further four hours after which NF-κB activation was measured by luciferase assay.\nFor transfection studies, HeLa and COS cells were seeded into either twenty-four well (1×10^5 cells/well) or six well (5×10^5 cells/well) plates and grown for twenty-four hours before transfection of DNA with FUGENE6(Roche) according to the manufacturer's protocol. Cells in twenty-four well and six well trays received a total of 1 μg or 2 μg of DNA respectively. After forty-eight hours cells were lysed with TNT (200 mM NaCl, 20 mM Tris-pH 8.0, 1% Triton-100) and the lysate were used for either immunoprecipitation or luciferase assay (Primage Luciferase Assay System).\nThe effects of the NBD peptides on signal-induced activation of NF-κB were investigated next. Analysis using electrophoretic mobility shift assay. […] Further, after transfecting HeLa cells with the pBIIX-luciferase reporter, cells were preincubated with wild-type or mutant peptides, treated with TNFα and NF-κB activation measured by the luciferase reporter assay. As shown in FIG. 5H (top panel), the wild-type NBD peptide inhibited TNFα-induced NF-κB activation whereas the mutant had no effect. […]"}, "[2]": {"test_system": "mice (PMA-induced ear edema)", "experiment": "PMA-induced ear edema in mice", "type": "in vivo", "conditions": "topical 200 μg/ear", "protocol": "The NBD peptide was tested for its ability to inhibit inflammatory responses in animals using two distinct models of acute inflammation. In the first model, ear edema was induced in mice using phorbol-12-myristate-13-acetate (PMA) and the effects of topical administration of the NBD peptides were measured. Ear edema using PMA was induced in replicate groups of age and sex matched mice as previously described (Chang et al., (1987) Eur. J. Pharmacol. 142, 197-205). Twenty μl of either NBD peptides (200 μg/ear), dexamethasone (40 μg/ear) or vehicle (DMSO:Ethanol; 25:75 v/v) was applied topically to the right ear of mice thirty minutes before and thirty minutes after the application of 20 μl of PMA (5 μg/ear) dissolved in ethanol. Ear swelling was measured six hours after PMA application using a microgauge and expressed as the mean difference in thickness between the treated (right) and untreated (left) ears. Statistical analysis of the data was performed using the students t-test. A value of p<0.05 was considered statistically significant."}, "[3]": {"test_system": "Mouse bone marrow cells", "experiment": "RANKL-induced osteoclast differentiation of bone marrow cells", "type": "cell-based", "conditions": "M-CSF 20 ng/ml + RANKL 100 ng/ml, six days, peptide 6.25, 12.5 and 25 mM", "text": "Osteoporosis is a severely debilitating disease characterized by an extensive loss of bone mass that is mediated by osteoclast-dependent bone resorbtion (Suda et al., (1992) Endocr. Rev. 13, 66-80; Suda et al., (1999) Endocr. Rev. 20, 345-357). It is therefore possible that selective inhibition of NF-κB activation in osteoclast precursor cells would prevent osteoclast differentiation and provide the basis for therapeutically effective drugs for the treatment of osteoporosis. Therefore the effect of the NBD peptides on osteoclast differentiation was tested using a previously described in vitro model (Jimi et al., (1999) Exp. Cell Res. 247, 84-93). Mouse bone marrow cells plated into 48-well tissue culture trays were incubated with human macrophage-colony stimulating factor (M-CSF; 20 ng/ml) and human RANKL (100 ng/ml) for six days in the absence or presence of various concentrations ([…]) of either mutant or wild-type NBD peptide. The cells were then fixed and stained for the osteoclast phenotypic marker tartrate-resistant acid phosphatase (TRAP) and TRAP-positive mutinucleated cells containing more than three nuclei were counted as osteoclasts. Triplicate samples were counted and results were calculated as means±SD."}, "[4]": {"test_system": "mice (zymosan-induced peritonitis)", "experiment": "Zymosan-induced peritonitis in mice", "type": "in vivo, mice (C57BL/6NCR)", "conditions": "for PMN accumulation / exudate formation: NBD peptides 200 mg/ml i.p. with zymosan", "protocol": "In a second model, peritonitis was induced in mice by intraperitoneal (i.p.) injection of zymosan either alone or in combination with dexamethasone or the NBD peptides. For zymosan-induced peritonitis, measurement of peritoneal exudates and inflammatory cell collections from replicate groups of age and sex matched mice (C57BL/6NCR) were performed as previously described (Getting et al., (1998) Immunology 95, 625-630). Groups of animals were injected concomitantly with one ml zymosan (1 mg/ml) and either dexamethasone (100 mg/ml) or the NBD peptides (200 mg/ml). The concentration of NOX (nitrate plus nitrite) present in the inflammatory exudates was measured using a colorimetric assay kit (Alexis Corporation) according to the manufacturers protocol."}, "[5]": {"conditions": "NBD peptide 200 mg/ml i.p. with zymosan"}}, "data": [{"substance": "[DRQIKIWFQNRRMKWKK]TALDWSWLQTE (DRQIKIWFQNRRMKWKKTALDWSWLQTE; Description of Unknown: Unknown wildtype NBD peptide) [wild-type NBD peptide]", "values": [{"measurement": "basal NF-κB activity (luciferase reporter)", "setting": "[1]; listed as cell-permeable NBD peptide", "result": "modest increase"}, {"measurement": "basal NF-κB activity (luciferase reporter)", "setting": "[1]; listed as wild-type peptide", "result": "enhanced"}, {"measurement": "TNFα-induced NF-κB activation (luciferase reporter)", "setting": "[1]", "result": "inhibited"}, {"measurement": "inhibition of PMA-induced ear thickening", "setting": "[2]; 30 min before and after PMA 5 μg/ear, 6 h", "result": "77±3", "unit": "%"}, {"measurement": "inhibition of osteoclast differentiation (TRAP-positive multinucleated cells)", "setting": "[3]; listed as wild type", "result": "dose-dependently inhibited"}, {"measurement": "inhibition of osteoclast differentiation (TRAP-positive multinucleated cells)", "setting": "[3]; listed as wild-type", "result": "dose dependent inhibition"}, {"measurement": "reduction of NOX in peritoneal exudates", "setting": "[4]; [5]", "result": "66±4", "unit": "%"}, {"measurement": "PMN accumulation", "setting": "[4]", "result": "significantly reduced"}, {"measurement": "exudate formation", "setting": "[4]", "result": "significantly reduced"}]}, {"substance": "[DRQIKIWFQNRRMKWKK]TALDASALQTE (DRQIKIWFQNRRMKWKKTALDASALQTE; Description of Artificial Sequence: Synthetic Mutant NBD peptide) [identical to wild-type NBD peptide except W739 and W741 mutated to alanine, reference compound]", "values": [{"measurement": "TNFα-induced NF-κB activation (luciferase reporter)", "setting": "[1]", "result": "no effect"}, {"measurement": "effect on PMA-induced ear thickening", "setting": "[2]; p=0.09", "result": "insignificant"}, {"measurement": "inhibition of osteoclast differentiation (TRAP-positive multinucleated cells)", "setting": "[3]", "result": "not"}, {"measurement": "effect on NOX in peritoneal exudates", "setting": "[4]; [5]", "result": "no effect"}, {"measurement": "PMN accumulation", "setting": "[4]", "result": "no effect"}, {"measurement": "exudate formation", "setting": "[4]", "result": "no effect"}]}]}
